# Laboratory results: publication PMC8620715, “Biological Activity of Triazolopyrimidine Copper(II) Complexes Modulated by an Auxiliary N-N-Chelating Heterocycle Ligands” (Molecules, 2021)
# Read-outs that look alike come from different tables or passages of the source.
# Assays:
# E. coli 25922 [1] = conditions: cited from earlier work
# MRSA 388 [2] = conditions: cited from earlier work
# P. aeruginosa 27853 [3] = conditions: cited from earlier work
# MRSA 388 [4] = conditions: MRSA 388, biofilm; cited from earlier work
# S. aureus 25923 [5] = conditions: cited from earlier work
# E. coli 25922 [6] = conditions: E. coli 25922, biofilm; cited from earlier work
# P. aeruginosa 27853 [7] = conditions: P. aeruginosa 27853, biofilm; cited from earlier work
# S. aureus 25923 [8] = conditions: S. aureus 25923, biofilm; cited from earlier work
# [9] = tested on: B16 murine melanoma cell line; conditions: cited from earlier work; for TI: 48 h; for IC50: B16, 48 h
# B16 cells [10] = experiment: Cell morphology by fluorescence microscopy (phalloidin staining), B16 cells; format: cell-based, mouse; conditions: 2.5 µg/mL (2.84 μM and 2.76 μM for the complexes), 24 h
# Description: (§1) The morphological changes induced by the treatment of the BJ and B16 cell lines with the tested compounds at two different concentrations (2.5 and 10 µg/mL) applied for 24 h were investigated by fluorescence microscopy.
# (§2) According to the manufacturer protocol, the cytoskeleton actin filaments of BJ and B16 cells were stained with phalloidin-FITC (Sigma-Aldrich, St. Louis, MO, USA). Briefly, cells were washed with PBS (5 min, 3 times), fixed for 5 min with 3% paraformaldehyde, washed three times with PBS, permeabilized with 0.1% Triton X-100 in PBS for 15 min, washed three times with PBS, stained with 20 μg/mL phalloidin-FITC at room temperature for 1 h and rewashed three times with PBS. The cell nucleus was stained with 8 μM of Hoechst 33342 solution for 10 min, washed three times with PBS, and finally, mounted and sealed on glass slides with FluorSave™ Reagent (Merck Millipore, Germany). The fluorescence images were acquired using an Andor DSD2 Confocal Unit (Andor, Ireland), mounted on an epifluorescence microscope, Olympus BX-51 (Olympus, Germany), equipped with a 40x and 100x objective and an appropriate DAPI/Hoechst filter cube (excitation filter 390/40 […], dichroic mirror 405 nm and emission filter 452/45 nm) and GFP/FITC filter cube (excitation filter 466/40 nm, dichroic mirror 488 nm and emission filter 525/54 nm).
# BJ cells [11] = experiment: Cell morphology by fluorescence microscopy (phalloidin staining), BJ cells; format: cell-based, human; conditions: 2.5 and 10 µg/mL, 24 h
# Description: as §1, §2
# B16 cells [12] = experiment: Lactate dehydrogenase (LDH) release assay, B16 cells; format: cell-based, mouse; conditions: B16, 24 h and 48 h
# Description: (§3) Membrane integrity after peptide treatment was assessed based on LDH release using a CytoTox 96 Non-Radioactive Cytotoxicity Assay (Promega), as previously described. […] Maximal LDH release was obtained by complete cell lysis induced by using 1% of Triton X-100. The absorption resulting from LDH activity was measured in a microplate reader Mithras 940 (Berthold) at 490 nm, and the % LDH was calculated as: [(corrected absorbance of the LDH released in treated cells)/(corrected absorbance of the total LDH released)] * 100%.
# [13] = tested on: BJ normal cell line (human fibroblast cells); experiment: MTT cell viability assay, BJ normal cells; format: cell-based; conditions: range of tested concentrations, 24 h and 48 h
# Description: (§4) Human fibroblast cells (BJ—ATCC CRL-2522, USA) were grown in minimal essential medium (MEM) supplemented with 2 mM L-Glutamine, 10% fetal calf serum (FCS), 100 units/mL of penicillin, and 100 µg/mL of streptomycin at 37 °C in a humidified incubator under an atmosphere containing 5% CO2. Mouse melanoma cells (B16—ATCC CRL—6475, USA) were grown in DMEM (Dulbecco’s Modified Eagle Medium) supplemented with similar reagents as MEM. All cell cultivation media and reagents were purchased from Biochrom AG (Berlin, Germany) and Sigma-Aldrich (Darmstadt, Germany).
# (§5) Cell viability was evaluated using 3-(4,5-dimethylthiazol-2-yl)-2,5-diphenyltetrazolium bromide (MTT) assay as described previously. First, the cells were seeded in 96-well plates (20000 cells/well) and cultured for 24 h in medium. […] The negative control was represented by cells cultivated in a medium without the investigated compounds. Following incubation, the medium was changed, and the MTT solution was added to each well to a final concentration of 1 mg/mL and incubated for an additional 4 h, at 37 °C. Finally, the medium was collected, and DMSO was used to dissolve the insoluble formazan product. The absorbance of the samples was recorded at 570 nm using a plate reader Mithras 940 (Berthold). The data were corrected for the background, and the percentage of viable cells was obtained using the equation:Cell viability = [(A570 of treated cells)/(A570 of untreated cells)] × 100%(1)
# (§6) The half-maximal inhibitory concentration (IC50) was determined by fitting the data with a sigmoidal logistical equation using the software Origin 8.1 (Microcal Inc., Los Angeles, CA, USA).
# MRSA 388 [14] = experiment: MIC by broth microdilution; format: cell-based, Staphylococcus aureus; conditions: Staphylococcus aureus; MRSA 388, planktonic; read-out: MIC
# Description: (§7) The antibacterial assays were carried out using two Gram-negative (Escherichia coli ATCC 25922, Pseudomonas aeruginosa ATCC 27853) and two Gram-positive (Staphylococcus aureus ATCC 25923, MRSA (meticillin-Resistant S. aureus) 388 (ATCC, American Type Culture Collection) bacteria.
# (§8) The antimicrobial activity of the two complexes (1) and (2) was assessed using their minimum inhibitory concentration (MIC) by the broth microdilution method, as previously described by the Clinical and Laboratory Standard Institute (CLSI; M07-A9 document). A broth microdilution assay was performed in sterile 96-well plates using Muller-Hinton broth (Scharlau; MHB). The compounds solubilized in […] (1,000 μg/mL) were serially diluted in 90 μL MHB, in concentrations ranging between 500 and 0.97 μg/mL. Overnight cultures were used to prepare suspension in phosphate-buffered saline (pH 7.0) to match a 0.5 McFarland density. The bacterial suspensions were further diluted to 1:100 by adding 0.1 mL of bacterial suspension to 9.9 mL of MHB. A volume of 10 μL of this dilution was added to each well of columns 1–10, containing different concentrations of the tested compounds. […] Additionally, 10 μL of the diluted bacterial suspension was added in column 11 (the growth control). A volume of 100 μL MHB was added to the microtiter plates’ sterility control wells (column 12). After inoculation, the plates were incubated at 35 ± 2 °C for 18 h. Growth was measured as light absorbance (620 nm) in comparison to an uninoculated well (negative control). It was detected using a microtiter plate reader (Apollo LB 911ELISA (Berthold Technologies GmbH & Co. KG, Waltham, MA, USA)). The MIC of each compound was defined as the lowest concentration required to inhibit bacterial growth.
# S. aureus 25923 [15] = experiment: MIC by broth microdilution; format: cell-based, Staphylococcus aureus; conditions: Staphylococcus aureus; S. aureus 25923, planktonic; read-out: MIC
# Description: as §7, §8
# BJ cells [16] = experiment: Lactate dehydrogenase (LDH) release assay, BJ cells; format: cell-based, human; conditions: 24 h and 48 h
# Description: as §3
# E. coli 25922 [17] = experiment: Biofilm formation on polystyrene (crystal violet), MBEC; format: cell-based, Escherichia coli; conditions: E. coli 25922, biofilm
# Description: as §7
# (§9) The method for assessment of biofilm formation on polystyrene microtiter plates was based on previously published protocols. The absorbance at 490 nm was measured with an Apollo LB 911ELISA (Berthold Technologies GmbH & Co. KG, Waltham, MA, USA) reader. The minimal biofilm-eradication concentration (MBEC) was defined as the lowest concentration of antibiotics required to eradicate the biofilm. All experiments were performed in triplicate.
# P. aeruginosa 27853 [18] = experiment: as above; format: cell-based, Pseudomonas aeruginosa; conditions: P. aeruginosa 27853, biofilm
# Description: as §7, §9
# MRSA 388 [19] = experiment: as above; format: cell-based, Staphylococcus aureus; conditions: MRSA 388, biofilm
# Description: as §7, §9
# S. aureus 25923 [20] = experiment: as above; format: cell-based, Staphylococcus aureus; conditions: S. aureus 25923, biofilm
# Description: as §7, §9
# E. coli 25922 [21] = experiment: MIC by broth microdilution; format: cell-based, Escherichia coli; conditions: Escherichia coli; E. coli 25922, planktonic; read-out: MIC
# Description: as §7, §8
# P. aeruginosa 27853 [22] = experiment: MIC by broth microdilution; format: cell-based, Pseudomonas aeruginosa; conditions: Pseudomonas aeruginosa; P. aeruginosa 27853, planktonic; read-out: MIC
# Description: as §7, §8
# [23] = tested on: B16 murine melanoma cell line; experiment: MTT cell viability assay, B16 melanoma cells; format: cell-based, mouse; conditions: 24 h and 48 h
# Description: as §4, §5, §6
compound,measurement,setting,value
"Cc1cc(-c2ccccc2)nc2ncnn12.[Cu+2].[O-][Cl+3]([O-])([O-])[O-].[O-][Cl+3]([O-])([O-])[O-].c1ccc(-c2ccccn2)nc1.c1ccc(-c2ccccn2)nc1 [CubPP, [Cu(bpy)2(pmtp)](ClO4)2]",MIC,E. coli 25922 [1],200 µM
same,MIC,MRSA 388 [2],400 µM
same,MIC,P. aeruginosa 27853 [3],400 µM
same,MBEC,MRSA 388 [4],0.40 mM
same,MIC,S. aureus 25923 [5],400 µM
same,MBEC,E. coli 25922 [6],0.40 mM
same,MBEC,P. aeruginosa 27853 [7],0.40 mM
same,MBEC,S. aureus 25923 [8],0.80 mM
same,TI,[9],3.23
same,IC50,[9],20 µM
"O.[Cu+2].[O-][Cl+3]([O-])([O-])[O-].[O-][Cl+3]([O-])([O-])[O-].c1cnc2c(c1)ccc1cccnc12.c1cnc2c(c1)ccc1cccnc12 [CupP, [Cu(phen)2(OH2)](ClO4)2]",MIC,E. coli 25922 [1],30 µM
same,MIC,MRSA 388 [2],120 µM
same,MIC,P. aeruginosa 27853 [3],500 µM
same,MBEC,MRSA 388 [4],0.10 mM
same,MIC,S. aureus 25923 [5],30 µM
same,MBEC,E. coli 25922 [6],0.10 mM
same,MBEC,P. aeruginosa 27853 [7],0.50 mM
same,MBEC,S. aureus 25923 [8],0.03 mM
same,TI,[9],0.80
same,IC50,[9],3.7 µM
"Cc1cc(-c2ccccc2)nc2ncnn12.[Cu+2].[O-][Cl+3]([O-])([O-])[O-].[O-][Cl+3]([O-])([O-])[O-].c1cnc2c(c1)ccc1cccnc12.c1cnc2c(c1)ccc1cccnc12 [CupPP, [Cu(phen)2(pmtp)](ClO4)2]",MIC,E. coli 25922 [1],20 µM
same,MIC,MRSA 388 [2],50 µM
same,MIC,P. aeruginosa 27853 [3],90 µM
same,MBEC,MRSA 388 [4],0.05 mM
same,MIC,S. aureus 25923 [5],10 µM
same,MBEC,E. coli 25922 [6],0.02 mM
same,MBEC,P. aeruginosa 27853 [7],0.09 mM
same,MBEC,S. aureus 25923 [8],0.01 mM
same,TI,[9],0.88
same,IC50,[9],4 µM
"Cc1cc(C)n2ncnc2n1 [dmtp, 5,7-dimethyl-1,2,4-triazolo[1,5-a]pyrimidine, reference compound]",morphological changes of B16 cells,B16 cells [10],not altered
same,morphological changes of BJ cells,BJ cells [11],did not alter their morphology
same,membrane integrity (LDH release),B16 cells [12],did not affect the membrane integrity
same,effect on viability of BJ cells,[13],did not affect the viability
same,MIC,MRSA 388 [14],16900 µM
same,MIC,S. aureus 25923 [15],8450 µM
same,membrane integrity (LDH release),BJ cells [16],did not affect the membrane integrity
same,MBEC,E. coli 25922 [17],8.45 mM
same,MBEC,P. aeruginosa 27853 [18],8.45 mM
same,MBEC,MRSA 388 [19],16.90 mM
same,MBEC,S. aureus 25923 [20],8.45 mM
same,MIC,E. coli 25922 [21],8450 µM
same,MIC,P. aeruginosa 27853 [22],8450 µM
same,effect on viability of B16 cells,[23],did not affect the viability
{[Cu(bpy)2(μ2OClO3)]ClO4}n [CubP],MIC,E. coli 25922 [1],540 µM
same,MIC,MRSA 388 [2],270 µM
same,MIC,P. aeruginosa 27853 [3],1090 µM
same,MBEC,MRSA 388 [4],0.27 mM
same,MIC,S. aureus 25923 [5],270 µM
same,MBEC,E. coli 25922 [6],0.54 mM
same,MBEC,P. aeruginosa 27853 [7],1.09 mM
same,MBEC,S. aureus 25923 [8],0.14 mM
same,TI,[9],5.53
same,IC50,[9],16 µM
